Three molecules from ChEMBL document CHEMBL5291721, “A preclinical secondary pharmacology resource illuminates target-adverse drug reaction associations of marketed drugs” (Nat Commun, 2023) can be followed below.

Test [1] addresses T1, Alpha-1A adrenergic receptor (Homo sapiens, UniProt P35348).
T1 sequence (P35348 whole entry): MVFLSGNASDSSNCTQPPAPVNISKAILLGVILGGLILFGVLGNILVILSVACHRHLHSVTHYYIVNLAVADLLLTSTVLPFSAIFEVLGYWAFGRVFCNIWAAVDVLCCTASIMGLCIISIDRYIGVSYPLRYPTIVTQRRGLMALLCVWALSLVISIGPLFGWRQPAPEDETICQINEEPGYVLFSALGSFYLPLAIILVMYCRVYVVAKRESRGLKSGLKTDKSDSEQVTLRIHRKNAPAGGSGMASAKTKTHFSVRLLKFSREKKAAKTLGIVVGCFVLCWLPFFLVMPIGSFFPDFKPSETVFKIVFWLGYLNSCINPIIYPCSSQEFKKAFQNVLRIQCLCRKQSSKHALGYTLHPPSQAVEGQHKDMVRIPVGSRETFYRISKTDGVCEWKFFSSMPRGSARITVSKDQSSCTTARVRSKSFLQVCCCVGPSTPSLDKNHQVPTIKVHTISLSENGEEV
It is filed as functional, cell-based.

Test [2] concerns the target T2, Alpha-2A adrenergic receptor (Homo sapiens, UniProt P08913).
T2 sequence (P08913 whole entry): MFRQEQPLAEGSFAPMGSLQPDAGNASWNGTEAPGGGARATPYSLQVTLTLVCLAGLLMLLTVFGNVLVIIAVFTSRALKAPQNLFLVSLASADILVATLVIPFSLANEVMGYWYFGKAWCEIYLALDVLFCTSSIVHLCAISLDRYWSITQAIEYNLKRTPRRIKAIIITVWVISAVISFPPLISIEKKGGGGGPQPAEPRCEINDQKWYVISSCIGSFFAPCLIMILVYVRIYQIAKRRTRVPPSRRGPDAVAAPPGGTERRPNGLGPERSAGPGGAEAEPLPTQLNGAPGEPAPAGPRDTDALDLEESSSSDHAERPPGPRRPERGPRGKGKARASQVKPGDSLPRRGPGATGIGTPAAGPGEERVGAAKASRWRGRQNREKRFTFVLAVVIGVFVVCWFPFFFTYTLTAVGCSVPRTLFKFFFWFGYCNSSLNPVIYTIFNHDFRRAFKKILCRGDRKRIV
The class given is functional, cell-based.

In test [3] the target is T3, Alpha-2C adrenergic receptor (Homo sapiens, UniProt P18825).
T3 sequence (P18825 whole entry): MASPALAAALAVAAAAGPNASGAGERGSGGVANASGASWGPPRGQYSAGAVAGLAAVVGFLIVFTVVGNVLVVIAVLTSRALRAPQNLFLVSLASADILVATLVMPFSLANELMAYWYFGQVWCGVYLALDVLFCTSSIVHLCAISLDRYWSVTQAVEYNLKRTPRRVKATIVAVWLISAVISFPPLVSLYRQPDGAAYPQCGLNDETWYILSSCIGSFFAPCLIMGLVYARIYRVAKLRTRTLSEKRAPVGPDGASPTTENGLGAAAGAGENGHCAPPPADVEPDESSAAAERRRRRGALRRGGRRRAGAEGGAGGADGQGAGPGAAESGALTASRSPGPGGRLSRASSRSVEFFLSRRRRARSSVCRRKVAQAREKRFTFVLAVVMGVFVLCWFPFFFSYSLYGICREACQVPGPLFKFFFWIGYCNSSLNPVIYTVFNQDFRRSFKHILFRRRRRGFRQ
The class given is functional.

Test [4] concerns the target Beta-1 adrenergic receptor (Homo sapiens, UniProt P08588). It is filed as functional.
Test [5] addresses Beta-2 adrenergic receptor (Homo sapiens, UniProt P07550).
The target in test [6] is T4, Androgen receptor (Rattus norvegicus, UniProt P15207).
T4 sequence (P15207 whole entry): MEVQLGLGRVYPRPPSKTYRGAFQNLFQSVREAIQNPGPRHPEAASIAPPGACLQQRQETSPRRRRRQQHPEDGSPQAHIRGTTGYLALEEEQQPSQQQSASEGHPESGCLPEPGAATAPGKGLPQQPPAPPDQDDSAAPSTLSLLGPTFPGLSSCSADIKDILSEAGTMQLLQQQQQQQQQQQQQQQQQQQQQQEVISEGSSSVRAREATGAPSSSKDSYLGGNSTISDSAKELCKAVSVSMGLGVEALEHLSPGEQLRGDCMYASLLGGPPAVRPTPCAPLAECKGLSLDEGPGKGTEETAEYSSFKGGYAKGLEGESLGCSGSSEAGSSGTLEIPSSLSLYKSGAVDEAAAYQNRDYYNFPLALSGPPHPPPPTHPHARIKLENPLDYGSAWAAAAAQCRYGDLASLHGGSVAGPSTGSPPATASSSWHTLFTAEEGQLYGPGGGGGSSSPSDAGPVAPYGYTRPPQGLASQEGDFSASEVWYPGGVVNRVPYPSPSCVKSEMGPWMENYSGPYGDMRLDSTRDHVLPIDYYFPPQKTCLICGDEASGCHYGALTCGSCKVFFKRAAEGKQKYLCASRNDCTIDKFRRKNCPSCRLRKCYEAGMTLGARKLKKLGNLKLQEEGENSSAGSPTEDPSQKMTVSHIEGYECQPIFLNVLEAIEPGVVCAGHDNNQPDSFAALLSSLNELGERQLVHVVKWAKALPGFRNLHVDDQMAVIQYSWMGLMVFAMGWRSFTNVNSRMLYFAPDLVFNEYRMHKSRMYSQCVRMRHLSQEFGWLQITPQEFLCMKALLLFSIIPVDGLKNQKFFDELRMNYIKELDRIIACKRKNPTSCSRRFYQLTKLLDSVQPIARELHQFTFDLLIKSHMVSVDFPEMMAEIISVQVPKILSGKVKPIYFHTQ
It is filed as functional.

Test [7] has as its target T4, Androgen receptor. The class given is functional. The source holds these as a separate data set.
The target in test [8] is Voltage-dependent L-type calcium channel subunit alpha-1C (Rattus norvegicus, UniProt P22002). It is filed as functional.
For test [9], the target named is T5, Cannabinoid receptor 1 (Homo sapiens, UniProt P21554). The class given is functional, cell-based.
Test [10] deals with T5, Cannabinoid receptor 1. The class given is functional, cell-based. The source holds these as a separate data set.
Test [11] has as its target Glutamate receptor ionotropic, NMDA 1 (Rattus norvegicus, UniProt P35439).
Another test addresses Histamine H1 receptor (Homo sapiens, UniProt P35367).
A further test concerns the target Histamine H2 receptor (Homo sapiens, UniProt P25021). The class given is functional, cell-based.
The target of another test is Mu-type opioid receptor (Homo sapiens, UniProt P35372). In words: biochemical. The class given is functional.
Test [12] has as its target T6, Amine oxidase [flavin-containing] A (Homo sapiens, UniProt P21397).
T6 sequence (P21397 whole entry): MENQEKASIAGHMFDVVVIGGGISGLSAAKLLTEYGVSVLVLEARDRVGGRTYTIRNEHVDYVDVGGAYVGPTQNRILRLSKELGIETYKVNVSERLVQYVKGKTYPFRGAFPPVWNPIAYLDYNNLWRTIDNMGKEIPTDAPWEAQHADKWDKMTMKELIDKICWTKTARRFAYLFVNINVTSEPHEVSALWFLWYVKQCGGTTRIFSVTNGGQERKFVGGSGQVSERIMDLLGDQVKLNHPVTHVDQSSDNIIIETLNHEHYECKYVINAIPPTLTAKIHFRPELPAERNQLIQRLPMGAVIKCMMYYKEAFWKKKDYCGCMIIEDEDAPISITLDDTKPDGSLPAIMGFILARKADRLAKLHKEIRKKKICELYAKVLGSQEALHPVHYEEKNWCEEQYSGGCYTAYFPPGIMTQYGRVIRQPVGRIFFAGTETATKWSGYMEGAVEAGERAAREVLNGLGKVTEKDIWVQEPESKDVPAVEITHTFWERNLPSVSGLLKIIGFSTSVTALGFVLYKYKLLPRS
It is filed as functional.

The target in the next test is Histamine H3 receptor (Homo sapiens, UniProt Q9Y5N1).
Test [13] addresses Sodium channel protein type 5 subunit alpha (Homo sapiens, UniProt Q14524). It is filed as functional, cell-based.
Another test addresses Acetylcholinesterase (Homo sapiens, UniProt P22303). The class given is functional.
Test [14] has as its target T5, Cannabinoid receptor 1. It is filed as functional.
Test [15] has as its target Gamma-aminobutyric acid receptor subunit alpha-1/alpha-2/beta-2/gamma-2 (Homo sapiens, UniProt P14867+P18507+P47869+P47870). It is filed as protein-complex assay.
Also: assay procedure not described here.

T5 sequence (P21554 whole entry): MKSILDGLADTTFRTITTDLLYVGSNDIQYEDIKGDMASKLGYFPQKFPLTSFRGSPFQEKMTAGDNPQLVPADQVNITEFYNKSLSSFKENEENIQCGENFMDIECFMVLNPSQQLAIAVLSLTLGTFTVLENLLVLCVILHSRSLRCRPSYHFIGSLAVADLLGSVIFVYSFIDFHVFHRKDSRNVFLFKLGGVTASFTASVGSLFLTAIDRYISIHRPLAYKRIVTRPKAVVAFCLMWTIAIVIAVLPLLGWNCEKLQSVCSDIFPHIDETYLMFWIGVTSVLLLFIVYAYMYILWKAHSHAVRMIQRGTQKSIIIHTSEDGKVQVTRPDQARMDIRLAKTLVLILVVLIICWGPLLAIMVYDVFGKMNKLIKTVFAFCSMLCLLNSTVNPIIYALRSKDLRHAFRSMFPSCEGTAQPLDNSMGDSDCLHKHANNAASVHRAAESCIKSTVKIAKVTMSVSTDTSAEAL
Histamine H2 receptor, sequence (P25021 whole entry): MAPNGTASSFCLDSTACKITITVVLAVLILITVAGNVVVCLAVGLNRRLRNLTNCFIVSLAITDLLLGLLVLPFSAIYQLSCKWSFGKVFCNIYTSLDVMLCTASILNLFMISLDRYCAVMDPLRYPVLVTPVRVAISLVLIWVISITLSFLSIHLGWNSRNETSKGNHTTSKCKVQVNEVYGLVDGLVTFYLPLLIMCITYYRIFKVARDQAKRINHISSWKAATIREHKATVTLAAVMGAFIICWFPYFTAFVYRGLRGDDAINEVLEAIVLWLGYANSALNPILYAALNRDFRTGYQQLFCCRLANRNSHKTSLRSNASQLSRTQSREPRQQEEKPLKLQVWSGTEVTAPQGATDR
Histamine H3 receptor, sequence (Q9Y5N1 whole entry): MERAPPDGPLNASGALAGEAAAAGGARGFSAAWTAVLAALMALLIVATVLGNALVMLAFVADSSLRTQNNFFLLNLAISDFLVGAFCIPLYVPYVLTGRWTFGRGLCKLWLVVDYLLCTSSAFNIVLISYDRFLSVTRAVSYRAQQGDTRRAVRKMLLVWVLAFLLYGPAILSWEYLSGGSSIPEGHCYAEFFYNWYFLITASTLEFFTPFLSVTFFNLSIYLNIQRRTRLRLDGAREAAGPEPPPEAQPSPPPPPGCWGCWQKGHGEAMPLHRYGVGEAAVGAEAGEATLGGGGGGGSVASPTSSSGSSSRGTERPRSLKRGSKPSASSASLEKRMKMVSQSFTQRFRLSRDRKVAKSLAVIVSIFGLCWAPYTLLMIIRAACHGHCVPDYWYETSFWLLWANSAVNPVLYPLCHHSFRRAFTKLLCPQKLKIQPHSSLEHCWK
Beta-1 adrenergic receptor, sequence (P08588 whole entry): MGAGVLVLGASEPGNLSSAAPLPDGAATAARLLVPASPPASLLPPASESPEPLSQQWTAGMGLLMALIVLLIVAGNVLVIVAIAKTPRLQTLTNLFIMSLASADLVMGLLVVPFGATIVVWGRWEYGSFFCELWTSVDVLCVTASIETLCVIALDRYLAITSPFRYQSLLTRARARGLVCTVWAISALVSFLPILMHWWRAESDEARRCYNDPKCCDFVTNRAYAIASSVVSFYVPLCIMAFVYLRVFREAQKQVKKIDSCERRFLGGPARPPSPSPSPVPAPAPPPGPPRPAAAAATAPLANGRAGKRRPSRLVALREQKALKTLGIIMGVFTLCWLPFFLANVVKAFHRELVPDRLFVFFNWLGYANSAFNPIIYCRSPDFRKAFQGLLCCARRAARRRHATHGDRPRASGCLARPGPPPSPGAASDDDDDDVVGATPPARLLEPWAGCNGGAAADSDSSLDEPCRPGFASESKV
Histamine H1 receptor, sequence (P35367 whole entry): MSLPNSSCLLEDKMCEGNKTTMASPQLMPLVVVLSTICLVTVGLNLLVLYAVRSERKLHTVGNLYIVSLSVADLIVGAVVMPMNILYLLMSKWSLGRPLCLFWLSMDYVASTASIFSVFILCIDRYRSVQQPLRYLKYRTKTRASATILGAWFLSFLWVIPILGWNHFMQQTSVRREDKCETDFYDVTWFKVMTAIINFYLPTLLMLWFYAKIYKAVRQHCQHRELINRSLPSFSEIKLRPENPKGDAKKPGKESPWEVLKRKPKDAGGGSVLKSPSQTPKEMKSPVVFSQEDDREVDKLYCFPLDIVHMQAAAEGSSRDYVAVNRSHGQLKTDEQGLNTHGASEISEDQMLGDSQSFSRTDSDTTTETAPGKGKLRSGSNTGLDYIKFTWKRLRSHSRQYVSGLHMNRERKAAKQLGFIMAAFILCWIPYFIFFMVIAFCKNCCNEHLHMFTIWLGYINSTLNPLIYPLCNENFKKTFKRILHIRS
Voltage-dependent L-type calcium channel subunit alpha-1C, sequence (P22002 whole entry): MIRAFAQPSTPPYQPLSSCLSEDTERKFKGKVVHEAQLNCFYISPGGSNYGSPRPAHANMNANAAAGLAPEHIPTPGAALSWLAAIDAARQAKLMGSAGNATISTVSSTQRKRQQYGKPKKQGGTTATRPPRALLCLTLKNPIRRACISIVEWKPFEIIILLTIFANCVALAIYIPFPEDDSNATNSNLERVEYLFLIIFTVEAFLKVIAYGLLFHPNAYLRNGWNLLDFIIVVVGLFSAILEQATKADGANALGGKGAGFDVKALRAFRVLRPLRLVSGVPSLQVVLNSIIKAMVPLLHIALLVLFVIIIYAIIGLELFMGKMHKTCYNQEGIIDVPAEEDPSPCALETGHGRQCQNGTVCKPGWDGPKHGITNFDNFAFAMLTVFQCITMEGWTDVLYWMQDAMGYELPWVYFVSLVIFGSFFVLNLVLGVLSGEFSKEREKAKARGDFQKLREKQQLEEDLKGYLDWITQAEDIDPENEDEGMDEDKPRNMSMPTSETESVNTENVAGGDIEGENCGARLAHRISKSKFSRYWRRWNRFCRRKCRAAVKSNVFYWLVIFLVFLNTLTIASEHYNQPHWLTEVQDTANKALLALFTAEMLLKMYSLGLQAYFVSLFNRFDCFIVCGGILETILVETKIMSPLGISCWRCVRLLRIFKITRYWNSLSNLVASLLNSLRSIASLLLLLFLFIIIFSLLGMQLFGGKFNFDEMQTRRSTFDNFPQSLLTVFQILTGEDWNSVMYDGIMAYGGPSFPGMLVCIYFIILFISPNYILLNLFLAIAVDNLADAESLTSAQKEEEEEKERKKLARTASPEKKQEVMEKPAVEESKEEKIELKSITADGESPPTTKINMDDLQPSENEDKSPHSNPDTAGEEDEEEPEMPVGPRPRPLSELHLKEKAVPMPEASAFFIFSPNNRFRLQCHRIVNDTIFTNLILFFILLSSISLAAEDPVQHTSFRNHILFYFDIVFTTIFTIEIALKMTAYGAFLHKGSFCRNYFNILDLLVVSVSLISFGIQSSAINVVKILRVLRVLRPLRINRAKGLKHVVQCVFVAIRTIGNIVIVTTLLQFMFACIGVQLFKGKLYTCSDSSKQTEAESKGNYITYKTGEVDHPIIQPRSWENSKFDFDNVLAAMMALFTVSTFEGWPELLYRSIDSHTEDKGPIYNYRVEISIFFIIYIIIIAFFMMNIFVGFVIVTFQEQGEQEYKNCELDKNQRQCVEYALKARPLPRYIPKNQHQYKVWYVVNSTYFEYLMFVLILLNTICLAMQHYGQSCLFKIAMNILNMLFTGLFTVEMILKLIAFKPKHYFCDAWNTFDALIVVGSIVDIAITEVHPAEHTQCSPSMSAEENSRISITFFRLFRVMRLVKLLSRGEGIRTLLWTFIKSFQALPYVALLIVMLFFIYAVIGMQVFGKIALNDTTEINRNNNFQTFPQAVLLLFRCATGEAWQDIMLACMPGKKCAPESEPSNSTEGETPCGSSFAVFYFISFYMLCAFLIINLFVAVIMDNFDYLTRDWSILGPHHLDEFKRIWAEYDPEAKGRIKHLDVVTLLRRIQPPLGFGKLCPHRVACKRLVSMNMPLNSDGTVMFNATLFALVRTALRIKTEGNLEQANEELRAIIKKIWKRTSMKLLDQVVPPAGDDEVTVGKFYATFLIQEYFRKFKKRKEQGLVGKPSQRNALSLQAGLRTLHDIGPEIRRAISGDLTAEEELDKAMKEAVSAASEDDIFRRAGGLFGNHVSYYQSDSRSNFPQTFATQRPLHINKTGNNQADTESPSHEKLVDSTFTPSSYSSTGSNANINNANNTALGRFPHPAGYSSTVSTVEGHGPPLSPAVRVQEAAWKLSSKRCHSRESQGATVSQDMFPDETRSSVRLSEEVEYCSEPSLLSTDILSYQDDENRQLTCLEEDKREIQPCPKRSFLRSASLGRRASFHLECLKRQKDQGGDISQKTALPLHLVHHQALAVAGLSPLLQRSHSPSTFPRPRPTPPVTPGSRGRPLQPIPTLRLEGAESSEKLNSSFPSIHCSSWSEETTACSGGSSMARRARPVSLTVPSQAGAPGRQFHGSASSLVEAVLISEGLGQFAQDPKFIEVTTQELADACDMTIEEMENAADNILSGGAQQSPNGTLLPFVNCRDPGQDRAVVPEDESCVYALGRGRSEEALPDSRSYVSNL
Acetylcholinesterase, sequence (P22303 whole entry): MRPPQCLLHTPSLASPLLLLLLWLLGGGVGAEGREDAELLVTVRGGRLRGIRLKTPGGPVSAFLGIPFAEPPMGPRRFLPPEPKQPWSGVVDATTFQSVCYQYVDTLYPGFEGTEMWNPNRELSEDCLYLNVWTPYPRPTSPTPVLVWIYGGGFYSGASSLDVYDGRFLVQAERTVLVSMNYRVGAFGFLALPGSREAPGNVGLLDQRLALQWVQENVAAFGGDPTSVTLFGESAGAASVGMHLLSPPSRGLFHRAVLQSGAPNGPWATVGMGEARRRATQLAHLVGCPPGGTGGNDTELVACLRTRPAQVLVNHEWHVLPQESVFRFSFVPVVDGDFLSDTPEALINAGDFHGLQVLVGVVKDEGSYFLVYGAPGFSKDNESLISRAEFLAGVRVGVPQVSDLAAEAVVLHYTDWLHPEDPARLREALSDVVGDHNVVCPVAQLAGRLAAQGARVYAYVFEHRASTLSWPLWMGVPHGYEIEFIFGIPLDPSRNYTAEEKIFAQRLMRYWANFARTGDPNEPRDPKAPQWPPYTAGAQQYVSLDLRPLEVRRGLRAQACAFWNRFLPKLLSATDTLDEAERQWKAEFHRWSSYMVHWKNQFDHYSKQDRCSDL

On to `CCC(=O)OCC(=O)[C@@]1(OC(=O)CC)[C@H](C)C[C@H]2[C@H]3[C@H]([C@@H](O)C[C@@]21C)[C@@]1(C)C=CC(=O)C=C1C[C@H]3Cl` [ALCLOMETASONE DIPROPIONATE], for which the AC50 (in test [1]; in [2]; in [3]; in test [4]; in [5]; at Androgen receptor [6]) was greater than 30 µM each time. Further, the half-maximal activity concentration (AC50) at Androgen receptor [7] was 9.4 µM; in test [8], greater than 30 µM; on Cannabinoid receptor 1 [9], greater than 30 µM; at Cannabinoid receptor 1 [10] it was 0.58 µM; in [11] it was greater than 30 µM; on Histamine H1 receptor, greater than 30 µM. In addition, the AC50 (on Histamine H2 receptor; at Mu-type opioid receptor; in test [12]; on Histamine H3 receptor) was greater than 30 µM in each case.
Take `N#C[C@@H]1C[C@@H]2C[C@@H]2N1C(=O)[C@@H](N)C12CC3CC(CC(O)(C3)C1)C2` [SAXAGLIPTIN ANHYDROUS]: the half-maximal activity concentration (AC50) in [13] was greater than 15 µM.
In the case of `OCCOCCN1CCN(C2=Nc3ccccc3Sc3ccccc32)CC1` [QUETIAPINE], the half-maximal activity concentration (AC50) on Acetylcholinesterase is greater than 30 µM; at Cannabinoid receptor 1 [9], greater than 30 µM; at Cannabinoid receptor 1 [10], greater than 30 µM; at Cannabinoid receptor 1 [14], greater than 10 µM; in test [15], greater than 30 µM.
